{"source": "patent US9393288B2", "about": "“Methods of treating diseases associated with PPARγ” (The University of Vermont and State Agricultural College, priority 2012, dated 2016)", "key": {"[1]": {"system": "parenchymal arterioles (PA)", "assay": "Pressurized arteriograph: vascular reactivity and structure of PA from relaxin-treated NP Sprague Dawley rats", "assay_type": "in vivo, rat", "conditions": "for Kind of structural remodeling of PA: normotensive NP rats", "source_text": "Animals and Treatment Groups: All procedures were approved by the Institutional Animal Care and Use Committee and conducted in accordance with the National Institutes of Health Guide for the Care and Use of Laboratory Animals. Female virgin NP Sprague Dawley rats (250-300 g, 14-16 weeks, Charles River, Canada) were used for all experiments and housed in the University of Vermont Animal Care Facility. Animals were randomly selected and grouped as untreated (N=4), treated with recombinant human relaxin-2 (relaxin, 4 μg/hr; N=14), relaxin plus a specific PPARγ inhibitor GW9662 (10 mg/kg daily in food; N=8), or vehicle (20 mM sodium acetate; N=14) for 10 days through osmotic minipumps (Alzet 2ML2, Durect Corp., Cupertino, Calif., USA). GW9662 treatment was started 1 day before and for the duration of relaxin treatment to ensure PPARγ was inhibited. Animals were anesthetized with 3% isoflurane and minipumps implanted subcutaneously in the back of the neck. All animals received post-surgical analgesic (buprenorphine, 50 μg/kg, s.c.). Relaxin infusion was continuous for 10 days until animals were euthanized for vessel experiments and tissue collection. The minipumps used were capable of delivering relaxin for 14 days and thus tissue collection was within this duration.\nVessel Preparation and Pressurized Arteriograph System: After collecting trunk blood, the brain was quickly removed and placed in cold physiological salt solution (PSS). In the first set of experiments, PA between the M1 and M2 region of the MCA territory and the MCA from the same animals were carefully isolated from vehicle- or relaxin-treated animals and mounted on glass cannulas in a dual-chambered arteriograph such that one PA and one MCA from each animal were studied simultaneously. PA were identified as branches off the MCA that penetrated into the brain tissue, as previously described (25). In the second set of experiments, PA from the same brain region as above were dissected from relaxin+GW9662-treated animal and compared to PA from vehicle- and relaxin-treated animals. MCA were not studied in this second set of animals because there was no effect of relaxin on that segment of the vasculature. The proximal cannulas were connected to an in-line pressure transducer and a servo-null pressure control system (Living Systems Instrumentation, Burlington, Vt., USA) that allowed intravascular pressure to be maintained at a set pressure or changed at a variable rate. The distal cannulas were closed during the experiment to avoid flow-mediated responses. Temperature and pH were continuously measured and maintained at 37.0±0.5° C. and 7.40±0.05, respectively. Measurements of inner diameter (ID) and wall thickness (WT) were made via video microscopy (Living Systems Instrumentation).\nVascular Reactivity and Structural Characteristics in PA and MCA: For the first set of experiments, PA and MCA were equilibrated for 1 hour at 25 mmHg, after which myogenic activity was determined by stepwise increases in pressure from 40 to 100 mmHg for PA or 50 to 175 mmHg for MCA. ID and WT were measured at each pressure once stable. Changes in ID and WT were measured in PA only in response to small- (SKCa) and intermediate- (IKCa) conductance calcium-activated potassium channels blockers, apamin (3×10^−7 M) and TRAM-34 (10^−6 M), respectively. PA are unique in that the contribution of endothelium-derived hyperpolarizing factors (EDHF) to tone is greater than most vessels Cipolla et al. (2009) Stroke 40, 1451-1457. Thus, inhibition of SKCa/IKCa channels, a critical component in the EDHF pathway, causes constriction in PA Cipolla et al. (2009) Stroke 40, 1451-1457. We therefore assessed the effect of relaxin on constriction of PA in response to SKCa/IKCa channel inhibition in order to assess this unique pathway. […]"}, "[2]": {"conditions": "rat, in vivo", "method": "A separate group of SHR-F was used to determine if relaxin crosses the BBB by treating with relaxin (4 μg/hr) for 14 days and measuring relaxin concentration in cerebrospinal fluid (CSF) and serum (SHR-F-Rln-CSF, n=4). For the osmotic pump implant, animals were anesthetized with 3% isoflurane and minipumps implanted subcutaneously in the back of the neck. All animals received post-surgical analgesia (buprenorphine, 50 μg/kg, s.c.). Relaxin infusion was continuous for 14 days until animals were euthanized for isolated vessel experiments and tissue collection.\nAnimals were anesthetized with isoflurane (3% in oxygen), decapitated, and trunk blood was collected for measurement of circulating relaxin. Serum was then collected and stored at −80° C. for determination of relaxin levels by enzyme-linked immunosorbent assay (ELISA) following manufacturer's instructions (Human Relaxin-2 Quantikine ELISA Kit, R&D Systems, Minneapolis, Minn., USA). Serum samples were diluted by 1:500 in the assay.\nTo determine the presence of relaxin in CSF, animals were anesthetized and CSF collected through a needle inserted into the cisterna magna (Liu, L., and Duff, K. (2008) A technique for serial collection of cerebrospinal fluid from the cisterna magna in mouse. Journal of visualized experiments: JoVE). […] Relaxin levels were determined in serum and CSF by ELISA as described above, except CSF was not diluted."}, "brain capillaries": {"system": "brain capillaries", "assay": "Brain capillary density (von Willebrand factor immunohistochemistry, capillary counting) in SHR", "assay_type": "in vivo, rat", "conditions": "relaxin-treated SHR vs WKY and untreated SHR"}, "[3]": {"assay": "Conscious blood pressure, non-invasive tail-cuff method, SHR", "assay_type": "in vivo, rat", "conditions": "SHR-F, relaxin 4 μg/hr 14 days", "method": "Systemic blood pressures were determined in all groups of animals using a non-invasive tail-cuff method (Chan, S. L., and Cipolla, M. J. (2011) Relaxin causes selective outward remodeling of brain parenchymal arterioles via activation of peroxisome proliferator-activated receptor-gamma. FASEB J 25, 3229-3239). For untreated WKY-F and SHR-F groups, blood pressures were measured on the day the animals were euthanized. For relaxin treated groups, blood pressures were measured on day 0 (baseline, before pump implant), 2, 7 and 14. All animals were trained for 3 days before actual blood pressure measurements were taken."}, "[4]": {"conditions": "relaxin- vs vehicle-treated NP rats"}, "[5]": {"conditions": "relaxin- vs vehicle-treated NP rats, all pressures studied"}}, "data": [{"substance": "relaxin", "values": [{"measurement": "Kind of structural remodeling of PA", "setting": "[1]", "value": "hypertrophic outward remodeling"}, {"measurement": "Kind of structural remodeling of PA", "setting": "[1]; listed as Relaxin", "value": "outward hypertrophic remodeling"}, {"measurement": "Distensibility of PA", "setting": "[1]; normotensive rats", "value": "without affecting"}, {"measurement": "CSA of PA wall", "setting": "[1]; [4]", "value": "increased"}, {"measurement": "OD of PA", "setting": "[1]; [4]", "value": "increased"}, {"measurement": "Passive WT of PA", "setting": "[1]; [4]", "value": "increased"}, {"measurement": "Response of PA to SKCa/IKCa inhibition (apamin, TRAM-34)", "setting": "[1]; [4]", "value": "no difference"}, {"measurement": "Tone of PA", "setting": "[1]; [4]", "value": "did not significantly affect"}, {"measurement": "Active diameter of PA", "setting": "[1]; [5]", "value": "increase"}, {"measurement": "Passive ID of PA", "setting": "[1]; [5]", "value": "significantly increased"}, {"measurement": "Relaxin in CSF as share of that in the circulation", "setting": "[2]", "value": "about 0.3%"}, {"measurement": "Relaxin in cerebrospinal fluid", "setting": "[2]", "value": "110 ± 30", "unit": "pg/mL"}, {"measurement": "Number of capillaries in the brain (capillary density)", "setting": "brain capillaries", "value": "significant increase"}, {"measurement": "Blood pressure", "setting": "[3]", "value": "did not cause a lowering of blood pressure"}, {"measurement": "Blood pressure", "setting": "[3]; listed as Relaxin", "value": "did not affect"}]}]}
